Results on 38 compounds are retold here after US5416118A, “Bicyclic amides as inhibitors of acyl-coenzyme A: cholesterol acyl transferase” (Schering Corporation, priority 1993, dated 1995).

The test system of assay [1] is cholesteryl esters. Nature of the assay: In Vivo Assay of Hypolipidemic Agents Using the Hyperlipidemic Hamster. To be noted: Mesocricetus auratus, po, 168 h, oral gavage once daily, 7 days, versus control, read-out: % Reduction in cholesteryl esters; for change in vivo at 50 mg/kg: 50 mpk. The method, then: In Vivo Assay of Hypolipidemic Agents Using the Hyperlipidemic Hamster
Hamsters are separated into groups of six and given a control cholesterol diet (Pudna Chow #5001 containing 0.5% cholesterol) for seven days. Diet consumption is monitored to determine dietary cholesterol exposure in the face of test compounds. The animals are dosed with the test compound once daily beginning with the initiation of diet. Dosing is by oral gavage of 0.2 mL of corn oil alone (control group) or solution (or suspension) of test compound in corn oil. All animals moribund or in poor physical condition are euthanized. After seven days, the animals are anesthetized by […] of ketamine and sacrificed by decapitation. Blood is collected into vacutainer tubes containing EDTA for plasma lipid analysis and the liver excised for tissue lipid analysis. Data is reported as percent reduction of lipid versus control.
(§1) Using the assay methods described above, the compounds of Examples 1-9 were tested for in vitro ACAT inhibitory activity and for the ability to lower the level of cholesteryl esters in vivo.

Assay [2] has as its system ACAT. Nature of the assay: ACAT Assay (in vitro). Type of assay: biochemical. The conditions noted are these: dose = 10 μM; rat liver microsomes. The method, then: This assay measures the activity of ACAT by measuring the ACAT-mediated transfer of tritiated oleic acid from acyl-CoA to cholesterol to give labelled cholesterol oleate. Rat liver microsomes are used as the source of ACAT. Assays are performed in round bottom microtiterplates using a total incubation volume of 50 μL. Each incubation well receives 10 μL assay buffer (0.5M KHPO4, 10 μM dithiothreitol, pH 7.4), 7.5 μL of 40 mg/mL BSA (Bovine Serum Albumin) and 12.5 μg of microsomal protein. The test compound (in sufficient amount to bring the final concentration to from 0.1 to 25 μM), reference compound, or vehicle control is added and the final volume brought to 47 μL. The microtiterplate is then floated on the surface of a 37° C. water bath for fifteen minutes. Incubations are started by the addition of 3 μL ^3 H-acyl CoA (1 μCi/well, final concentration of 10 μM acyl CoA). The plate is then returned to the water bath for 15 minutes. The incubations are then terminated by application of 15 μL from each incubation to individual lanes on a thin layer plate (Silica Gel GF 20×20 cm). Standards are applied to several lanes so that the cholesterol ester band can be identified. After drying, the plates are eluted with 90:10:1 petroleum ether:ether:HOAc. The standards are visualized via iodine vapor, and the regions corresponding to cholesterol ester are scraped into 7 mL scintillation vials. 4 mL of scintillant are added to each vial, and the radioactivity quantified. Background count is determined by the boiled controls. Full activity is determined by activity in the presence of vehicle. The percent inhibition is calculated by subtracting the background from both control and test samples, and the test value is calculated as a percentage of the control. For IC50 determinations, the inhibition is plotted against drug doses on a log scale and the concentration at which 50% inhibition is obtained is determined.
as §1

For `O=C(N[C@@H]1c2ccccc2CCC[C@H]1c1ccc(O)cc1)C(c1ccccc1)c1ccccc1` (relative stereo) [Example 3J], the change in vivo at 50 mg/kg in assay [1] is -61%. In the case of `O=C(N[C@H]1c2ccccc2C[C@H]1c1ccc([N+](=O)[O-])cc1)C(c1ccccc1)c1ccccc1` (relative stereo) [Example 2I], the “ACAT % Inhibition” value in assay [2] was found to be 51%.

Take `CCCCCCCC/C=C\CCCCCCCC(=O)N[C@@H]1c2ccccc2CC[C@@H]1c1ccc(O)cc1` (relative stereo) [Example 4A]: the change in vivo at 50 mg/kg in assay [1] is 0%. The “ACAT % Inhibition” value in assay [2] worked out at 81%.

As to `O=C(N[C@@H]1c2ccc(O)cc2C[C@H]1c1ccccc1)C(c1ccccc1)c1ccccc1` (relative stereo) [Example 3L], the “ACAT % Inhibition” value in assay [2] was found to be 93%. Regarding `O=C(N[C@@H]1c2ccccc2C[C@@H]1c1ccc(O)cc1)C(c1ccccc1)c1ccccc1` (single isomer, unassigned) [Example 3BB], the “ACAT % Inhibition” value in assay [2] was less than 0%. Consider `CCCCCCCC/C=C\CCCCCCCC(=O)N[C@H]1c2ccccc2CC[C@@H]1c1ccc(OC)cc1` (relative stereo) [Example 2H], for which, in assay [1] (100 mpk), the change in vivo at 100 mg/kg came to 0%. For the same compound, in assay [2], the “ACAT % Inhibition” value is on record as 81%. `O=C(N[C@H]1c2ccccc2OC[C@@H]1c1ccccc1)C(c1ccccc1)c1ccccc1` (relative stereo) [Example 1M]: the change in vivo at 50 mg/kg in assay [1] turned out to be 0%. In addition, the “ACAT % Inhibition” value in assay [2] stood at 85%. Take `O=C(N[C@@H]1c2cccc(O)c2CC[C@H]1c1ccccc1)C(c1ccccc1)c1ccccc1` (relative stereo) [Example 3S]: in assay [1], the change in vivo at 50 mg/kg is 0%. Regarding `O=C(N[C@@H]1c2ccc(O)cc2CC[C@H]1c1ccccc1)C(c1ccccc1)c1ccccc1` (relative stereo) [Example 3N], the change in vivo at 50 mg/kg in assay [1] turned out to be 0%. Also, the “ACAT % Inhibition” value in assay [2] was 92%.

Turning to `O=C(N[C@H]1c2ccccc2C[C@@H]1c1ccc([N+](=O)[O-])cc1)C(c1ccccc1)c1ccccc1` (relative stereo) [Example 2J], the “ACAT % Inhibition” value in assay [2] was -12%. `O=C(N[C@@H]1c2ccc(O)cc2C[C@@H]1c1ccccc1)C(c1ccccc1)c1ccccc1` (relative stereo) [Example 3K]: the change in vivo at 50 mg/kg in assay [1] worked out at 0%. Further, in assay [2], the “ACAT % Inhibition” value is listed as 54%. The matching figures for `COc1ccc2c(c1)C[C@@H](c1ccccc1)[C@H]2NC(=O)C(c1ccccc1)c1ccccc1` (relative stereo) [Example 2R]: 0% and 75%.

In the case of `O=C(N[C@@H]1c2ccccc2CCC[C@@H]1c1ccc(O)cc1)C(c1ccccc1)c1ccccc1` (relative stereo) [Example 3R], the change in vivo at 50 mg/kg in assay [1] was determined as 0%. `O=C(N[C@@H]1c2cccc(O)c2CC[C@@H]1c1ccccc1)C(c1ccccc1)c1ccccc1` (relative stereo) [Example 3T]: the change in vivo at 50 mg/kg in assay [1] came out at 0%.

On to `O=C(N[C@@H]1c2c(O)cccc2CC[C@H]1c1ccccc1)C(c1ccccc1)c1ccccc1` (relative stereo) [Example 3CC], for which the change in vivo at 50 mg/kg in assay [1] is -20%. Regarding `O=C(N[C@H]1c2ccccc2OC[C@H]1c1ccccc1)C(c1ccccc1)c1ccccc1` (relative stereo) [Example 1E], the change in vivo at 50 mg/kg in assay [1] amounted to 0%. The “ACAT % Inhibition” value in assay [2] worked out at 40%.

For the compound `COc1ccc([C@H]2CCCc3ccccc3[C@@H]2NC(=O)C(c2ccccc2)c2ccccc2)cc1` (relative stereo) [Example 1I], in assay [2], the “ACAT % Inhibition” value is reported as 63%.

Take `Cc1cc([C@H]2Cc3ccccc3[C@H]2NC(=O)C(c2ccccc2)c2ccccc2)cc(C)c1O` (single isomer, unassigned) [Example 9A, (+)-cis-N-[2-(3',5'-dimethyl-4'-hydroxyphenyl)indanyl]-α-phenylbenzeneacetamide]: the change in vivo at 50 mg/kg in assay [1] is -60%. The “ACAT % Inhibition” value in assay [2] was 97%. On to `COc1cccc([C@H]2Cc3ccccc3[C@@H]2NC(=O)C(c2ccccc2)c2ccccc2)c1` (relative stereo) [Example 2B], for which the “ACAT % Inhibition” value in assay [2] is listed as 94%. On to `COc1ccc([C@H]2CCc3ccccc3[C@@H]2NC(=O)C(c2ccccc2)c2ccccc2)cc1` (relative stereo) [Example 1G], for which the change in vivo at 50 mg/kg in assay [1] was found to be 0%. The same measure, in the same setting: the same measure for `O=C(N[C@@H]1c2ccccc2CC[C@H]1c1ccccc1O)C(c1ccccc1)c1ccccc1` (relative stereo) [Example 3A]: 0%. Take `O=C(N[C@@H]1c2cc(O)ccc2CC[C@H]1c1ccc(O)cc1)C(c1ccccc1)c1ccccc1` (relative stereo) [Example 3U]: the change in vivo at 10 mg/kg in assay [1] (10 mpk) is -60%. Also, the change in vivo at 30 mg/kg in assay [1] (30 mpk) is -86%. Moreover, in assay [1], the change in vivo at 50 mg/kg is -97%.

Consider `COc1ccccc1[C@H]1CCc2ccccc2[C@@H]1NC(=O)C(c1ccccc1)c1ccccc1` (relative stereo) [Example 1B], for which the change in vivo at 50 mg/kg in assay [1] came to 21%. The same measure, in the same setting: in the case of `COc1cccc([C@H]2CCc3ccccc3[C@@H]2NC(=O)C(c2ccccc2)c2ccccc2)c1` (relative stereo) [Example 1D] it was 0%. On to `CCCCCCCC/C=C\CCCCCCCC(=O)N[C@H]1c2ccccc2CC[C@H]1c1ccccc1` (relative stereo) [Example 2L], for which the “ACAT % Inhibition” value in assay [2] amounted to 66%. For the compound `COc1ccc2c(c1)[C@H](NC(=O)C(c1ccccc1)c1ccccc1)[C@@H](c1ccccc1)C2` (relative stereo) [Example 2T], the “ACAT % Inhibition” value in assay [2] worked out at 15%.

`O=C(N[C@H]1c2ccccc2C[C@@H]1c1cccc([N+](=O)[O-])c1)C(c1ccccc1)c1ccccc1` (relative stereo) [Example 2D]: in assay [2], the “ACAT % Inhibition” value stood at 90%. `O=C(N[C@@H]1c2cc(O)ccc2CC[C@@H]1c1ccc(O)cc1)C(c1ccccc1)c1ccccc1` (relative stereo) [Example 3V]: the change in vivo at 50 mg/kg in assay [1] stood at 0%.

On to `O=C(N[C@@H]1c2cc(O)ccc2CC[C@H]1c1ccccc1)C(c1ccccc1)c1ccccc1` (single isomer, unassigned) [Example 3Z], for which the “ACAT % Inhibition” value in assay [2] is 92%. Consider `O=C(N[C@H]1c2ccccc2CC[C@@H]1c1ccncc1)C(c1ccccc1)c1ccccc1` (relative stereo) [Example 1J], for which the change in vivo at 50 mg/kg in assay [1] is -39%. Regarding `COc1ccc2c(c1)[C@H](NC(=O)C(c1ccccc1)c1ccccc1)[C@H](c1ccccc1)C2` (relative stereo) [Example 2Q], the “ACAT % Inhibition” value in assay [2] is 16%. In the case of `Nc1ccc([C@H]2CCc3ccccc3[C@@H]2NC(=O)C(c2ccccc2)c2ccccc2)cc1` (relative stereo) [Example 2P], the change in vivo at 25 mg/kg in assay [1] (25 mpk) was -15%.

Take `CCCCCCCC/C=C\CCCCCCCC(=O)N[C@H]1c2ccccc2OC[C@@H]1c1ccccc1` (relative stereo) [Example 2O]: the “ACAT % Inhibition” value in assay [2] turned out to be 87%. Take `COc1ccc([C@@H]2CCc3ccccc3[C@@H]2NC(=O)C(c2ccccc2)c2ccccc2)cc1` (relative stereo) [Example 1, cis-N-[-2-(4'-methoxyphenyl)-1,2,3,4-tetrahydronaphthalen-1-yl]-α-phenylbenzeneacetamide]: the change in vivo at 50 mg/kg in assay [1] was determined as 0%. Take `O=C(N[C@@H]1c2cc(O)ccc2CC[C@H]1c1ccccc1)C(c1ccccc1)c1ccccc1` (single isomer, unassigned) [Example 3Y]: the “ACAT % Inhibition” value in assay [2] is reported as 83%.

Regarding `COc1ccc([C@H]2CCc3ccc(OC)cc3[C@@H]2NC(=O)C(c2ccccc2)c2ccccc2)cc1` (relative stereo) [Example 1R], the change in vivo at 50 mg/kg in assay [1] stood at 0%.

Consider `O=C(N[C@@H]1c2c(O)cccc2C[C@@H]1c1ccccc1)C(c1ccccc1)c1ccccc1` (relative stereo) [Example 3X], for which, in assay [2], the “ACAT % Inhibition” value is recorded as 97%.

In the case of `Nc1ccc([C@@H]2Cc3ccccc3[C@H]2NC(=O)C(c2ccccc2)c2ccccc2)cc1` (relative stereo) [Example 5, trans-N-[2-(4'-aminophenyl)indanyl]-α-phenylbenzeneacetamide], the “ACAT % Inhibition” value in assay [2] worked out at 94%.
